Reference: ChEMBL document CHEMBL3272098, “Reactions of 2-acyloxyisobutyryl halides with nucleosides. 7. Synthesis and biological evaluation of some 2,2'-anhydro-1(3',5'-di-O-acyl-beta-D-arabinofuranosyl)cytosine hydrochlorides” (J Med Chem, 1976)
Active and inactive are the calls of the source. The rule behind the calls is not given here.

Experiments:
[1] = test system: Herpesviridae sp.; experiment: Antiviral activity against Herpes simplex virus HF infected in African green monkey BGM cells after 6 days by plaque reduction assay; format: functional; conditions: 144 h, read-out: ED50 (the source's name)
[2] = test system: L1210; experiment: Antitumor activity against mouse L1210 cells allografted in BDF1 mouse assessed as survival at 200 mg/kg, ip administered 24 hrs post-implantation after 30 days; format: functional, organism-based; set-up: dose 200 mg/kg
[3] = test system: L1210; experiment: Antitumor activity against mouse L1210 cells allografted in BDF1 mouse assessed as increase in life span at 200 mg/kg, ip administered 24 hrs post-implantation measured up to 30 days relative to control; format: functional; conditions: route intraperitoneal
[4] = test system: Measles morbillivirus; experiment: Antiviral activity against Measles virus infected in African green monkey BGM cells after 5 days by pulp disk diffusion assay; format: functional, organism-based
[5] = test system: Vaccinia virus; experiment: Antiviral activity against Vaccinia virus IHD infected in African green monkey BGM cells after 6 days by plaque reduction assay; format: functional; conditions: Orthopoxvirus vaccinia, 144 h, read-out: ED50 (the source's name)
[6] = test system: unidentified influenza virus; experiment: Antiviral activity against Influenza virus Ao/WNS infected in monkey LLC-MK2 cells after 5 days by pulp disk diffusion assay; format: functional, organism-based
[7] = test system: L1210; experiment: Antitumor activity against mouse L1210 cells allografted in po dosed BDF1 mouse administered 24 hrs post-implantation; format: functional, organism-based
[8] = test system: HeLa; experiment: Cytotoxicity against human HeLa cells after 48 hrs by Coulter counting analysis; format: functional; conditions: read-out: ED50 (the source's name)
[9] = test system: BGM; experiment: Antiviral activity against Poliovirus type 1 Mahoney infected in African green monkey BGM cells after 5 days by pulp disk diffusion assay; format: functional, cell-based; conditions: Human poliovirus 1 Mahoney
[10] = test system: L1210; experiment: Antitumor activity against mouse L1210 cells allografted in BDF1 mouse assessed as increase in life span at 1000 mg/kg, ip administered 24 hrs post-implantation measured up to 30 days relative to control; format: functional; conditions: route intraperitoneal
[11] = test system: L1210; experiment: Antitumor activity against mouse L1210 cells allografted in BDF1 mouse assessed as survival at 50 mg/kg, ip administered 24 hrs post-implantation after 30 days; format: functional, organism-based; set-up: dose 50 mg/kg
[12] = test system: L1210; experiment: Antitumor activity against mouse L1210 cells allografted in BDF1 mouse assessed as survival at 1000 mg/kg, ip administered 24 hrs post-implantation after 30 days; format: functional, organism-based; set-up: dose 1000 mg/kg
[13] = test system: L1210; experiment: Antitumor activity against mouse L1210 cells allografted in BDF1 mouse assessed as increase in life span at 50 mg/kg, ip administered 24 hrs post-implantation measured up to 30 days relative to control; format: functional; conditions: route intraperitoneal
[14] = test system: L1210; experiment: Antitumor activity against mouse L1210 cells allografted in BDF1 mouse assessed as increase in life span at 500 mg/kg, ip administered 24 hrs post-implantation measured up to 30 days relative to control; format: functional; conditions: route intraperitoneal
[15] = test system: L1210; experiment: Antitumor activity against mouse L1210 cells allografted in BDF1 mouse assessed as survival at 500 mg/kg, ip administered 24 hrs post-implantation after 30 days; format: functional, organism-based; set-up: dose 500 mg/kg
[16] = test system: Mus musculus; experiment: Toxicity in BDF1 mouse allografted with mouse L1210 cells assessed as reduction in average life span at 1000 mg/kg, ip administered 24 hrs post-implantation measured up to 30 days relative to control; format: organism-based; set-up: dose 1000 mg/kg, route intraperitoneal; scale not given: the % may be the effect or the level left; conditions: in vivo
[17] = test system: Mus musculus; experiment: Toxicity in BDF1 mouse allografted with mouse L1210 cells assessed as reduction in average life span at 200 mg/kg, ip administered 24 hrs post-implantation measured up to 30 days relative to control; format: organism-based; set-up: dose 200 mg/kg, route intraperitoneal; scale not given: the % may be the effect or the level left; conditions: in vivo
[18] = test system: Mus musculus; experiment: Toxicity in BDF1 mouse allografted with mouse L1210 cells assessed as survival at 200 mg/kg, ip administered 24 hrs post-implantation after 30 days; format: organism-based; set-up: dose 200 mg/kg, route intraperitoneal; conditions: in vivo, 720 h
[19] = test system: Mus musculus; experiment: Toxicity in BDF1 mouse allografted with mouse L1210 cells assessed as survival at 1000 mg/kg, ip administered 24 hrs post-implantation after 30 days; format: organism-based; set-up: dose 1000 mg/kg, route intraperitoneal; conditions: in vivo, 720 h

CC(=O)OC[C@H]1O[C@@H]2[C@@H](Oc3nc(=N)ccn32)[C@@H]1OC(C)=O.Cl
EC50 [1]: 2.4 µM
Activity [2]: inactive
ILS at 200 mg/kg [3]: 7%
Activity [4]: inactive
EC50 [5]: 0.69 µM
Activity [6]: inactive
Activity [7]: inactive
EC50 [8]: 0.2 µg/mL
Activity [9]: inactive

CCCCCCCCCCCCCCCCCCCCCC(=O)OC[C@H]1O[C@@H]2[C@@H](Oc3nc(=N)ccn32)[C@@H]1OC(=O)CCCCCCCCCCCCCCCCCCCCC.Cl
EC50 [1]: > 30 µM
Activity [2]: inactive
ILS at 200 mg/kg [3]: 55%
Activity [4]: inactive
ILS at 1000 mg/kg [10]: 139%
Activity [11]: inactive
EC50 [5]: > 30 µM
Activity [6]: inactive
Activity [7]: inactive
Activity [12]: inactive
EC50 [8]: > 10 µg/mL
Activity [9]: inactive
ILS at 50 mg/kg [13]: 15%

CCCCCCCC(=O)OC[C@H]1O[C@@H]2[C@@H](Oc3nc(=N)ccn32)[C@@H]1OC(=O)CCCCCCC.Cl
EC50 [1]: 1.35 µM
Activity [2]: inactive
ILS at 200 mg/kg [3]: 28%
Activity [4]: inactive
EC50 [5]: 0.56 µM
Activity [6]: inactive
Activity [7]: inactive
EC50 [8]: 0.1 µg/mL
Activity [9]: inactive

Cl.N=c1ccn2c(n1)O[C@H]1[C@H](O)[C@@H](CO)O[C@H]12 [ANCITABINE HYDROCHLORIDE]
EC50 [1]: 0.7 µM
Activity [2]: inactive
ILS at 500 mg/kg [14]: 67%
ILS at 200 mg/kg [3]: 25%
Activity [4]: inactive
ILS at 1000 mg/kg [10]: 89%
Activity [15]: inactive
EC50 [5]: 0.41 µM
Activity [6]: inactive
Activity [7]: inactive
Activity [12]: inactive
EC50 [8]: 0.06 µg/mL
Activity [9]: inactive

CCCCCCCCCCCCCCCC(=O)OC[C@H]1O[C@@H]2[C@@H](Oc3nc(=N)ccn32)[C@@H]1OC(=O)CCCCCCCCCCCCCCC.Cl
EC50 [1]: > 30 µM
Activity [2]: inactive
ILS at 200 mg/kg [3]: 231%
Activity [4]: inactive
EC50 [5]: 28 µM
Activity [6]: inactive
Activity [7]: inactive
EC50 [8]: 4 µg/mL
Activity [9]: inactive

CCCCCCCCCC(=O)OC[C@H]1O[C@@H]2[C@@H](Oc3nc(=N)ccn32)[C@@H]1OC(=O)CCCCCCCCC.Cl
EC50 [1]: 1.1 µM
Activity [4]: inactive
Activity [16]: 72%
Activity [11]: inactive
EC50 [5]: 0.32 µM
Activity [6]: inactive
Activity [7]: inactive
Activity [17]: 69%
Activity [18]: Toxic
Activity [19]: Toxic
EC50 [8]: 0.2 µg/mL
Activity [9]: inactive
ILS at 50 mg/kg [13]: 14%

CC(=O)O[C@H]1[C@@H]2Oc3nc(=N)ccn3[C@@H]2O[C@@H]1COC(=O)C12C=CC(C)(CC1)CC2.Cl
EC50 [1]: 1.75 µM
Activity [2]: inactive
ILS at 200 mg/kg [3]: 20%
Activity [4]: inactive
EC50 [5]: 0.4 µM
Activity [6]: inactive
Activity [7]: inactive
EC50 [8]: 0.2 µg/mL
Activity [9]: inactive

CCCCCCCCCCC(=O)OC[C@H]1O[C@@H]2[C@@H](Oc3nc(=N)ccn32)[C@@H]1OC(=O)CCCCCCCCCC.Cl
EC50 [1]: 0.66 µM
ILS at 500 mg/kg [14]: > 20%
ILS at 200 mg/kg [3]: > 179%
Activity [4]: inactive
Activity [11]: inactive
EC50 [5]: 0.41 µM
Activity [6]: inactive
Activity [7]: inactive
EC50 [8]: 0.32 µg/mL
Activity [9]: inactive
ILS at 50 mg/kg [13]: 88%

CCCCCCCCC(=O)OC[C@H]1O[C@@H]2[C@@H](Oc3nc(=N)ccn32)[C@@H]1OC(=O)CCCCCCCC.Cl
EC50 [1]: 0.42 µM
Activity [4]: inactive
Activity [11]: inactive
EC50 [5]: 0.32 µM
Activity [6]: inactive
Activity [7]: inactive
Activity [17]: 88%
Activity [18]: Toxic
EC50 [8]: 0.06 µg/mL
Activity [9]: inactive
ILS at 50 mg/kg [13]: 14%

CC(=O)O[C@H]1[C@@H]2Oc3nc(=N)ccn3[C@@H]2O[C@@H]1COC(=O)C12CC3CC(CC(C3)C1)C2.Cl
EC50 [1]: 2.1 µM
Activity [4]: inactive
EC50 [5]: 0.64 µM
Activity [6]: inactive
Activity [7]: inactive
Activity [17]: 100%
Activity [18]: Toxic
EC50 [8]: 0.2 µg/mL
Activity [9]: inactive

CCCCCCCCCCCCCCCCCC(=O)OC[C@H]1O[C@@H]2[C@@H](Oc3nc(=N)ccn32)[C@@H]1OC(=O)CCCCCCCCCCCCCCCCC.Cl
EC50 [1]: > 30 µM
Activity [2]: inactive
ILS at 200 mg/kg [3]: 125%
Activity [4]: inactive
ILS at 1000 mg/kg [10]: > 255%
Activity [11]: inactive
EC50 [5]: > 30 µM
Activity [6]: inactive
Activity [7]: inactive
Activity [12]: Active
EC50 [8]: 3.8 µg/mL
Activity [9]: inactive
ILS at 50 mg/kg [13]: 68%

CCCCCCCCCCCCCCCCCCCC(=O)OC[C@H]1O[C@@H]2[C@@H](Oc3nc(=N)ccn32)[C@@H]1OC(=O)CCCCCCCCCCCCCCCCCCC.Cl
EC50 [1]: > 30 µM
Activity [2]: inactive
ILS at 200 mg/kg [3]: 31%
Activity [4]: inactive
ILS at 1000 mg/kg [10]: 107%
Activity [11]: inactive
EC50 [5]: > 30 µM
Activity [6]: inactive
Activity [7]: inactive
Activity [12]: inactive
EC50 [8]: 2.5 µg/mL
Activity [9]: inactive
ILS at 50 mg/kg [13]: 8%

CC(=O)O[C@H]1[C@@H]2Oc3nc(=N)ccn3[C@@H]2O[C@@H]1COC(=O)C(C)(C)C.Cl
EC50 [1]: 3.2 µM
Activity [2]: inactive
ILS at 200 mg/kg [3]: 18%
Activity [4]: inactive
EC50 [5]: 0.77 µM
Activity [6]: inactive
Activity [7]: inactive
EC50 [8]: 0.2 µg/mL
Activity [9]: inactive
